Results on ten molecules are retold here after patent US5594009A, “Fused pyrrolocarbazoles” (priority 1995, dated 1997).

One may read the IC50 as the concentration needed to halve the response being measured.

In assay [1] the test system is choline acetyltransferase (ChAT) activity in dissociated rat embryonic spinal cord culture. The assay is described as follows: Spinal Cord ChAT Activity Assay. Format: cell-based. Particulars: ChAT measured after 48 hours.
Description: In these assays, a fused pyrrolocarbazole was directly added to a dissociated spinal cord culture. […] The fused pyrrolocarbazole was added on the same day the dissociated spinal cord cell culture was initiated.
Methods: Fetal rat spinal cord cells were dissociated, and experiments were performed as described (Smith et al., J. Cell Biology., 101:1608-1621 (1985); Glicksman et al., J. Neurochem. 61:210-221 (1993)). Dissociated cells were prepared from spinal cords dissected from rats (embryonic day 14-15) by standard trypsin dissociation techniques (Smith et al., J. Cell Biology 10:1608-1621 (1985)). Cells were plated at 6×10^5 cells/cm^2 on poly-1-ornithine coated plastic tissue culture wells in serum-free N2 medium supplemented with 0.05% bovine serum albumin (BSA) (Bottenstein et al., PNAS USA 514-517 (1979)). Cultures were incubated at 37° C. in a humidified atmosphere of 5% CO2 /95% air for 48 hours. ChAT activity was measured after 2 days it vitro using a modification of the Fonnum procedure (Fonnum, J. Neurochem. 24:407-409 (1975)) according to McManaman et al. and Glicksman et al. (McManaman et al., Developmental Biology 125:311-320 (1988); Glicksman et al., J. Neurochem. 61:210-221 (1993)).
In assay [2] the test system is NT-3 induced ChAT activity of rat basal forebrain cultures. The assay is described as follows: Enhancement of Neurotrophin (NT-3) Activity Assay, ChAT activity in basal forebrain cultures. Format: cell-based. To be noted: for ChAT activity in the absence of NT-3: compound added alone to basal forebrain neurons, no NT-3; for ChAT activity in the presence of NT-3: with 100 ng/ml NT-3. How it is done:
Fused pyrrolocarbazoles were tested for the ability to enhance the activity of the neurotrophin NT-3 in basal forebrain cultures. ChAT activity was assayed as a measure of cholinergic neuron function and survival. The concentration of NT-3 (100 ng/ml) used in these experiments increased ChAT activity over control cultures (untreated with NT-3 or a fused pyrrolocarbazole) by 140%.
Methods. Basal forebrain cultures were prepared from embryonic rats (embryonic day 17) and dissociated with the neutral protease Dispase™. Cells were plated at a density of 4×10^5 cells/cm^2 on poly-1-ornithine coated plastic tissue culture plates in a mixture of DMEM and F12 media (50/50 v/v GIBCO) supplemented with 5% horse serum and 0.5% fetal bovine serum. Cells were incubated at 37° C. in a humidified atmosphere of 5% CO2 /95% air for 5 days. ChAT activity was measured as described in Example III(A)(1).
Recombinant rat NT-3 was produced by using a recombinant baculovirus expression vector under the control of the polyhedron virus promoter (Fraser, In Vitro Cell. and Dev. Biol. 25:225-235 (1989)). The plasmid pXM-NT3 (Hallbook et al., Neuron 6:845-858 (1991), which contained the rat NT-3 cDNA clone, was provided by Dr. Ira Black (University of Medicine and Dentistry of New Jersey, Piscataway, N.J.). NT-3 cDNA was subcloned into the transfer vector pVL1392 (In Vitrogen Corp., San Diego, Calif.) for recombinant virus production. Recombinant baculovirus was produced as described in Meyer et al. (Meyer at al., J. Neurochem 62:825-833 (1994)).

The next assay addresses protein kinase C. Put plainly: PKC Activity Inhibition Assay. It is filed as biochemical. The protocol: Fused pyrrolocarbazoles inhibited the activity of protein kinase C (Table VI). The protein kinase C assay has been disclosed (Murakata et al., U.S. Pat. No. 4,923,986; Kikkawa et al., J. Biol. Chem. 257:13341-13348 (1982)). The assay was performed with several concentrations of fused pyrrolocarbazoles. The concentration at which protein kinase C was 50% inhibited (IC50) was determined.

In assay [3] the test system is ChAT activity of basal forebrain cultures. Put plainly: Basal Forebrain ChAT Activity Assay. It is filed as cell-based, rat. To be noted: for activity at 0.25 µM: 250 nM. The protocol:
Fused pyrrolocarbazoles were tested for the ability to increase ChAT activity of basal forebrain cultures.
Methods: The basal forebrain was dissected from rat embryos (day 17 or 18 embryos) and the cells were dissociated with a neutral protease (Dispase™, Collaborative Research). Neurons were plated at a density of 5×10^4 cells/well (1.5×10^5 cells/cm^2) in poly-1-ornithine and laminin coated plates. Cells were cultured in serum-free N2 medium containing 0.05% BSA at 37° C. in a humidified atmosphere, 5% CO2 /95% air. ChAT activity was assessed 5 days after plating by using the ChAT assay as described in Example III(A)(1).

The subject of another assay is chick DRG neurons. The assay is described as follows: DRG Neuron Survival Assay (calcein AM). It is filed as cell-based. Particulars: 48 hours; for viability at 0.1 µM / viability at 0.25 µM / viability at 0.5 µM: Gallus gallus, DRG neuron, read-out: Neuronal Survival (% of Control); for viability at 0.25 µM: 250 nM; for viability at 0.5 µM: 500 nM. The protocol: Fused pyrrolocarbazoles promoted dorsal root ganglion (DRG) neuronal survival in cultures of chick DRG neurons. Cell survival was measured by uptake of calcein AM, an analog of the viable dye, fluorescein diacetate. Calcein is taken up by viable cells and cleaved intracellularly to fluorescent salts which are retained by intact membranes of viable cells. Microscopic counts of viable neurons correlate directly with relative fluorescence values obtained with the fluorimetric viability assay. This method thus provides a reliable and quantitive measurement of cell survival in the total cell population of a given culture (Bozyczko-Coyne et al., J. Neur. Meth. 50:205-216, 1993).
Methods: Dorsal root ganglia were dissected from embryonic age day 9 chick embryos and dissociated cells prepared by subsequent Dispase (neutral protease, Collaborative Research) dissociation. Neurons were seeded at low density (3×10^4 cells/cm^2) into 96 well poly-L-ornithine and laminin coated plates. Cells were cultured for 48 hours in serum-free N2 medium (Bottenstein and Sato, 1979) at 37° C. in a humidified atmosphere, 5% CO2 /95% air. Cell survival was assessed at 48 hours using the viable fluorimetric assay described above.

Another assay deals with trkA tyrosine kinase (Homo sapiens, UniProt P04629). The assay is described as follows: trkA Tyrosine Kinase Activity Inhibition Assay (ELISA). Particulars: 16 μM ATP, 37° C., 15 min; read-out: INHIBITION OF trkA KINASE IC50. Format: biochemical. Background: In an ELISA, binding on a coated surface is turned into a signal by an enzyme label.
In assay [4] the test system is lumbar motoneurons of chick embryos. Put plainly: Inhibition of Motoneuron Death In Ovo. To be noted: for % of motoneurons rescued versus control / Number of motoneurons mean ± SD: E6-E9; for Number of motoneurons mean ± SD: one side of spinal cord. It is filed as in vivo.
Description: The samples (50 ul) were applied to the vascularized chorioallantoic membrane through a window in the egg shell as previously described (Oppenheim et al., 1988). Embryos were sacrificed on E10 and spinal cords were removed, fixed in Carnoy's solution (10% acetic acid, 60% ethanol, 30% chloroform), embedded in paraffin, sectioned at 8 um, and stained with thionin as described previously (Oppenheim et al., 1988). Motoneurons (identified by morphology and position) were counted by an individual blind to the treatment conditions in every tenth section according to previously established criteria (Oppenheim et al., 1982, Oppenheim, 1986).
Where [5] appears, read: Rattus norvegicus, 120 h, read-out: ChAT Activity (% of Control).

Chain of trkA tyrosine kinase (P04629 33-796): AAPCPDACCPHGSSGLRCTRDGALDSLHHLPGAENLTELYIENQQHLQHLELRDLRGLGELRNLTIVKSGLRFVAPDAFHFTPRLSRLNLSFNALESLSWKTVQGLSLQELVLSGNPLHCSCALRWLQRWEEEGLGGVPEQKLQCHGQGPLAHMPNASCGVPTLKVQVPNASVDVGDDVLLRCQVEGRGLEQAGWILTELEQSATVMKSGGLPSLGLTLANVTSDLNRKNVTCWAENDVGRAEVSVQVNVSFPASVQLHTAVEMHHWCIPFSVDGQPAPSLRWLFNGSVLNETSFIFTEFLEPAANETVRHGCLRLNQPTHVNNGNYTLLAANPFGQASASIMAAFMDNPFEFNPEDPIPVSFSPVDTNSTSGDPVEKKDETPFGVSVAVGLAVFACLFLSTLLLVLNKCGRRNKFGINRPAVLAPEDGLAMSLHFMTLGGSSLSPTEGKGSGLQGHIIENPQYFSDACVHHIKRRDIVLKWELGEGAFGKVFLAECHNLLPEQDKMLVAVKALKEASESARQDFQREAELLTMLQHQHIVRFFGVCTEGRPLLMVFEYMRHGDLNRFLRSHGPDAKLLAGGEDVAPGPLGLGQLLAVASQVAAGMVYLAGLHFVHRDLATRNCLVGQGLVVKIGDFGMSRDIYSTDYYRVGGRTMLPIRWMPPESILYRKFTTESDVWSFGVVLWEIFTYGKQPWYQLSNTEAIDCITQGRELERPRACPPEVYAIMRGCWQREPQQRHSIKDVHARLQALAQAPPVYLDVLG
Description for trkA tyrosine kinase: These compounds were then tested for the ability to inhibit substrate phosphorylation by the trkA tyrosine kinase.
Plates were washed three times with TBST, followed by two washes with TBS (TBST sans Tween-20). Fused pyrrolocarbazoles were then added at various concentrations to a reaction mixture (50 mM HEPES, pH 7.4, 5 mM MnCl2, 5 mM MgCl2, 140 mM NaCl, 16 μM ATP, and 15 ng trkA in a total volume of 1001 μL.). As a negative control, 100 mM EDTA was included in the reaction solution. The plates were then incubated at 37° C. for 15 min. The detection antibody, monoclonal anti-phosphotyrosine antibody (UBI), was added at a dilution of 1:2000 in TBST, and incubated for 1 hour at 37° C. Plates were then washed three times with TBST, followed by a 1 hour incubation at 37° C. with alkaline phosphatase-labeled goat anti-mouse IgG (1:2000 in TBST (Bio-Rad)). After washing three times with TBST followed by two washes with TBS, a colored product was produced by using NADPH as substrate for alkaline phosphatase, and the coupled reactions of diaphorase and alcohol dehydrogenase (GIBCO-BRL ELISA amplification system). The colored product was read at 490 nm in a microplate reader (Biotek).

With `O=C1NC(=O)c2c1c1c(c3[nH]c4ccc(Br)cc4c23)Cc2ccccc2-1` [Compound I-6, 3-Bromo-6H, 12H, 13H-indeno[2,3-c]pyrrolo[3,4-c]carbazole-5,7(5H, 7H),-dione], the “Spinal Cord ChAT Activity, % of Control, untreated cultures” value (“Spinal Cord ChAT Activity, % of Control” below) in assay [1] is 209 % of Control. Moreover, in assay [2], the “ChAT activity in the absence of NT-3” value is on record as “no effect on ChAT activity” and the “ChAT activity in the presence of NT-3” value is on record as “enhanced ChAT activity”. The same molecule had an IC50 at protein kinase C of 1000 nM.
As for `O=C1NCc2c1c1c(c3[nH]c4ccc(F)cc4c23)Cc2ccccc2-1` [Compound I-12, 3-Fluoro-5H, 6H, 12H, 13H-indeno[2,3-a]pyrrolo[3,4-c]carbazole-7(7H)one], in assay [1], the “Spinal Cord ChAT Activity, % of Control” value is given as 173 % of Control. In addition, the activity at 0.1 µM in assay [3] (Rattus norvegicus, 120 h, 100 nM, read-out: ChAT Activity (% of Control)) was determined as 279%. In assay [3] (setting [5]), the activity at 0.25 µM was found to be 389%. Further, the viability at 0.1 µM in the assay on chick DRG neurons (100 nM) was 126%. Moreover, the viability at 0.25 µM in the assay with chick DRG neurons was 165%. For the same molecule, in the assay with chick DRG neurons, the viability at 0.5 µM is 178%. Also, the IC50 against protein kinase C was determined as 85 nM; on trkA tyrosine kinase, 26.7 nM.
Regarding `O=C1NCc2c3c(c4[nH]c5ccccc5c4c21)CCc1ccccc1-3` [Compound I-16, 12,13-dihydro-6H, 7H, 14H-naphthyl[3,4-a]pyrrolo[3,4-c]carbazole-5(5H)one], the “Spinal Cord ChAT Activity, % of Control” value in assay [1] is reported as 142 % of Control. The molecule also had an IC50 against protein kinase C of 35 nM.
In the case of `O=C1NCc2c1c1c(c3[nH]c4ccccc4c23)CCc2ccccc2-1` [Compound I-17, 12,13-Dihydro-5H, 6H, 14H-naphthy[3,4-a]pyrrolo[3,4-c]carbazole-7(7H)one], the “Spinal Cord ChAT Activity, % of Control” value in assay [1] is on record as 197 % of Control. Also, the IC50 against protein kinase C stood at 1000 nM; on trkA tyrosine kinase, 66 nM.
Regarding `O=C1NCc2c1c1c(c3[nH]c4ccc(F)cc4c23)CCc2ccccc2-1` [Compound I-22, 12,13-Dihydro-3-fluoro-5H, 6H, 14H-naphthyl[3,4-a]pyrrolo[3,4-c]carbazole-7(7H)one], in assay [1], the “Spinal Cord ChAT Activity, % of Control” value was 143 % of Control. Moreover, the IC50 against protein kinase C is 250 nM.
On to `O=C1NCc2c3c(c4[nH]c5ccc(F)cc5c4c21)Cc1ccccc1-3` [Compound I-23, 3-Fluoro-6H, 7H, 12H, 13H -indeno[2,3-a]pyrrolo[3,4-c]carbazole-5(5H)one], for which the “Spinal Cord ChAT Activity, % of Control” value in assay [1] was 208 % of Control. Besides, the “Neuronal Survival (% of Control)” value in the assay with chick DRG neurons (100 nM) was “inactive”. Besides, in the assay on chick DRG neurons, the viability at 0.25 µM is 128% and the viability at 0.5 µM was 135%. Besides, the IC50 at protein kinase C stood at 60 nM. The concentration for half-maximal inhibition (IC50) on trkA tyrosine kinase came out at 70.6 nM.
With `C=CCn1c2ccccc2c2c3c(c4c(c21)Cc1ccccc1-4)C(=O)NC3` [Compound I-26, 13-Allyl-5H,6H,12H-indeno[2,3-a]pyrrolo[3,4-c]carbazole-7(7H)one], the “Spinal Cord ChAT Activity, % of Control” value in assay [1] is given as 167 % of Control. Besides, on protein kinase C, the IC50 is 300 nM.
Take `O=C1NCc2c1c1c(c3[nH]c4ccc(CCc5ccccn5)cc4c23)Cc2ccccc2-1` [Compound I-34]: the “Spinal Cord ChAT Activity, % of Control” value in assay [1] is 254 % of Control. For the same molecule, the “ChAT Activity (% of Control)” value in assay [3] (100 nM), in assay [3] (500 nM) and in assay [3] (1000 nM) was “inactive” in each case. Also, the activity at 0.25 µM in assay [3] (setting [5]) worked out at 192%. In the assay with chick DRG neurons (100 nM), the viability at 0.1 µM is 159%. Moreover, the viability at 0.25 µM in the assay with chick DRG neurons was 203%. Besides, in the assay on chick DRG neurons, the viability at 0.5 µM was 207%. Besides, the “% of motoneurons rescued versus control” value is given as 11% in assay [4] (0.015 ug/egg daily), 7% in assay [4] (0.15 ug/egg daily), 23% in assay [4] (0.3 ug/egg daily) and 27% in assay [4] (0.6 ug/egg daily). Also, the “Number of motoneurons mean ± SD” value in assay [4] (0.015 ug/egg daily) turned out to be 10480 ± 585; in assay [4] (0.15 ug/egg daily), 10135 ± 354; in assay [4] (0.3 ug/egg daily), 11593 ± 654; in assay [4] (0.6 ug/egg daily), 11976 ± 1106. Further, the “increase in motoneuron survival in treated vs. control embryos, maximal effect” value in assay [4] (0.6 ug/egg, vehicle-treated control) is on record as 27%. For the same molecule, the “number of surviving lumbar motoneurons / naturally occurring motoneuron death (in words)” value in assay [4] (daily application to chorioallantoic membrane, E6 to E9) is “dose-dependent increase in the number of surviving lumbar motoneurons”. The “dose at which the maximal effect was achieved” value in assay [4] (daily dose) was 0.6 ug/egg.
`O=C1NC(=O)c2c1c1c(c3[nH]c4cc(Cl)ccc4c23)Cc2ccccc2-1` [Compound Ia-1, 2-Chloro-6H , 12H, 13H-indeno[2,3a]pyrrolo[3,4-c]carbazole-5,7(5H, 7H)-dione]: the “Spinal Cord ChAT Activity, % of Control” value in assay [1] is 139 % of Control. Further, in assay [2], the “ChAT activity in the absence of NT-3” value is recorded as “no effect on ChAT activity” and the “ChAT activity in the presence of NT-3” value is “enhanced ChAT activity”.

B1: NT-3: Recombinant rat NT-3 produced by using a recombinant baculovirus expression vector (protein, UniProt P18280 140-258, looked up)
Neurotrophin-3: YAEHKSHRGEYSVCDSESLWVTDKSSAIDIRGHQVTVLGEIKTGNSPVKQYFYETRCKEARPVKNGCRGIDDKHWNSQCKTSQTYVRALTSENNKLVGWRWIRIDTSCVCALSRKIGRT
modifications: baculovirus-expressed
notes: Recombinant rat NT-3 produced by using a recombinant baculovirus expression vector
As to B1, the “increase of ChAT activity over control cultures” value in assay [2] (NT-3 100 ng/ml, control untreated with NT-3 or fused pyrrolocarbazole) stood at 140%.
